Assay results from patent publication EP4748844A1, “AZETIDINE COMPOUND AND MEDICAL USE THEREOF” (SHANGHAI INSTITUTE OF MATERIA MEDICA, CHINESE ACADEMY OF …, priority 2023, dated 2025).

How the values were obtained:
[1] = test system: STING agonist (MSA-2) stimulation; assay: In vivo anti-inflammatory effect of oral administration on STING agonist (MSA-2) stimulation; set-up: species or system C57BL6 female mice; conditions: I-77 20mpk
Description: 6-8 week C57BL6 female mice, purchased from Shanghai Jihui Experimental Animal Breeding Co., Ltd. Compound preparation method: 2 mg of I-77 powder was taken, 12 µL of PEG400 was added thereto and ultrasonically dissolved, and then 8 µL of Tween 80 was added and ultrasonically mixed to prepare a 100 mg/mL stock solution.
Experimental grouping: The control group was administered vehicle solvent; The model group was administered MSA-2 (10mpk, dissolved in 40% PEG400); The treatment group (I-77) was administered MSA-2 and I-77 (20mpk, PO). A final concentration of […] of I-77 solution was prepared by dilution with double distilled water, and 200 µL of the solution was taken and administered intragastrically into the mice in treatment group; The control group and MSA-2 group were administered intragastrically with 200 µL of vehicle solvent diluted 10 times. […] After high-speed centrifugation of blood samples, the plasma was taken and diluted by 2 times, and the levels of CXCL10 and IL6 in the plasma were detected using the Lianke ELISA kit. RNA was extracted from heart and kidney samples, and reversed to cDNA, and inflammation related cytokines (ISG15, ISG56, IL6, and IP10) in tissues were detected using qPCR technology. […]

[2] = test system: DMXAA induced ISG gene expression in mouse RAW-Lucia cells; assay: Inhibition of DMXAA-induced ISG gene expression in mouse RAW-Lucia cells (QUANTI-Luc); type: cell-based; conditions: STING agonist DMXAA 50 µM, incubated for 24 hours
Procedure, shortened: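 RAW-Lucia cells (4×10^5/mL) stimulated with 50 µM DMXAA and co-incubated 24 h with compound at 10 to 0.004 µM (3-fold steps, 0.1% DMSO). Secreted luciferase in supernatant read with QUANTI-Luc; inhibition calculated against DMXAA-only control, IC50 from four-parameter variable-slope fit constrained 0–100.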

[3] = test system: Trex1-D18N autoimmune mouse model; assay: Inflammatory inhibitory effect of oral administration in Trex1-D18N autoimmune mouse model; type: in vivo; conditions: I-77 20mpk, daily for one month, qPCR of Cxcl10/IP10, ISG15, ISG56, IFN-β, IFN-γ, STAT2 in heart, Figure 10
Description: The model mice were purchased from GEMPHARMATECH CO., LTD., and the wild-type C57/BL6 mice were also purchased from GEMPHARMATECH CO., LTD.. Compound preparation method: 2 mg of I-77 powder was taken, 12 µL of PEG400 was added thereto and ultrasonically dissolved, and then 8 µL of Tween 80 was added and ultrasonically mixed to prepare a 100 mg/mL stock solution.
Experimental grouping: Wild type mice control group (Control) was administered vehicle solvent; The model mice group (Model) was administered vehicle solvent; The treatment group (I-77) was administered I-77 (20mpk, PO) to the model mice. The mice in the I-77 group were intragastrically administered 200 µL of I-77 solution at a final concentration of […] daily, which was prepared by dilution with double-distilled water; The same dose of vehicle solvent was administered to the remaining groups continuously for one month. The heart was collected from the experimental endpoint samples. RNA extraction was performed on heart samples, and the RNA was reversed to cDNA. Changes in gene expression of inflammation related cytokines (Cxcl10/IP10, ISG15, ISG56, IFN-β, IFN-γ, and STAT2) in the tissues were detected using qPCR technology. Statistical method: One way ANOVA, *P<0.05, **P<0.01, ***P<0.001, ***P<0.0001.

## CC1(C)C(=O)N(Cc2ccsc2)c2cc(C(=O)Nc3c[nH]c4ccccc34)ccc21 [Example I-77, N-(1H-indol-3-yl)-3,3-dimethyl-2-oxo-1-(thien-3-ylmethyl)indolin-6-carboxamide]
[1]; 1 hour before MSA-2 (10mpk), plasma ELISA after 4 hours, Figure 4
  levels of IL6 and IP10 in plasma induced by MSA-2 injection: significantly reduced
[1]; qPCR of ISG15, ISG56, IL6, IP10 in tissues, Figures 5, 6
  inflammatory response of the heart and kidneys induced by MSA-2 stimulation: inhibited the inflammatory response
[2]
  IC50: 2.28 nM
[3]
  cardiac inflammation related cytokine expression in the Trex1-D18N model: significantly inhibit the upregulation
